US7354928B2, “Small molecule inhibitors targeted at Bcl-2” (The Regents of the University of Michigan, priority 2001, dated 2008)
Like-named read-outs stand apart in the source and are kept apart here. One block for each compound: values may come before it.

Key:
[1] = Solubility in DMSO or chloroform; type: physicochemical
Method: Compound 5. FABMS 613.2 (M+H)^+. Insoluble in either DMSO or chloroform.
Subsequently ^1H NMR spectra for the five active compounds were performed. The ^1H NMR spectrum for compound 5 is not determined, because it is insoluble in either DMSO or chloroform. The ^1H NMR spectra for compounds 6, 7, 8 and 11 are consistent with their chemical structures.

[2] = target: T1, GST-fused Bcl-2 protein (Homo sapiens, UniProt P10415); assay: Bcl-2 fluorescence polarization (FP) competitive binding assay with Flu-Bak-BH3 peptide; conditions: read-out: IC50, inhibition of Bak BH3 peptide binding to Bcl-2, 290 nM tracer, 270 nM Bcl-2 protein
T1 construct: purchased Santa Cruz Biotechnology (Santa Cruz, Calif.)
T1 sequence (P10415 1-205 limits assumed): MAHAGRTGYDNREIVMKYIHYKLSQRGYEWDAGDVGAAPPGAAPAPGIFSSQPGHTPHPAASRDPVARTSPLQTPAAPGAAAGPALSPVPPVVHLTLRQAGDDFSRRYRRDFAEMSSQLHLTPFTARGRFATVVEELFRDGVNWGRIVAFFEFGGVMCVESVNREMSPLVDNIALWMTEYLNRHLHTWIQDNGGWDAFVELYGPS

[3] = tested on: HL-60 cells; assay: Cell viability, trypan blue exclusion, HL-60; type: cell-based; conditions: Homo sapiens; HL-60, trypan blue exclusion, 24 hours; read-out: IC50, inhibition of cell viability
Method: FIG. 3 illustrated the effects of Compound 6 on cell viability. Cells are plated in 24-well plates, incubated with the compound at appropriate concentrations for […]. Cell viability is determined by trypan blue exclusion with hemocytometer. Percent of viable cells, as compared with untreated cells, is plotted against drug concentration.
First, in some embodiments, the trypan blue exclusion method was used to determine the effect of an inhibitor on cell viability in which cells were treated with the inhibitor for 24 hours. Second, in some other embodiments, the MTT assay was used to determine the activity of an inhibitor on cell proliferation where cells were treated for four days. All the 7 active compounds were tested using the HL-60 cell line that expresses the highest level of Bcl-2 protein among all the cancer cell lines examined.
Cells and Reagents. Human breast cell lines (T47D, MDA-231, MDA-453), and human Leukemia cells HL-60 were obtained from the American Type Culture Collection (ATCC). All tumor cell lines were grown and maintained in RPMI 1640 medium containing 10% FBS, except MDA-MB-231, which used Dulbecco's modified Eagle's medium as basal medium. Cultures were maintained in a humidified incubator at 37° C. and 5% CO2.
Cell viability was determined by the trypan blue assay. […] Trypan blue dye was added 24 hours later and the percentage of viable cells were determined.

[4] = tested on: Bcl-2/Bcl-XL; conditions: reported by Tzung et al.; read-out: IC50, inhibitor of Bcl-2/Bcl-XL; cited from earlier work

Compound: O=C1c2cc(Br)ccc2-c2ccc3c4ccc5c6c(ccc(c7ccc1c2c73)c64)C(=O)c1cc(Br)ccc1-5 [Compound 5]
solubility [1]: Insoluble
solubility ([1]; listed as compound 5): insoluble

melting point: 136 to 138 °C
Compound: COc1ccc2c(c1)CCc1cc(OC)ccc1[N+]([O-])=[N+]2[O-] [Compound 6a, 2,9-Dimethoxy-11,12-dihydrodibenzo [c,g] [1,2] diazocine-5,6-dioxide]

IC50 [2]: 1.6 µM
Compound: Nc1nc(-c2ccccc2)nc2c1[n+]([O-])c1ccccc1[n+]2[O-] [Compound 7]

IC50 [3]: ≥ 50 µM
Compound: Brc1cccc[n+]1-c1ccc2cc(-[n+]3ccccc3Br)ccc2c1 [Compound 10]

Compound: antimycin A
IC50 [4]: 2 µM
